Reference: publication PMC11783063, “Design, synthesis, and apoptotic antiproliferative action of new benzimidazole/1,2,3-triazole hybrids as EGFR inhibitors” (Frontiers in Chemistry, 2025)

Assays:
Type in all cases: cell-based, human
Bcl-2 = Bcl-2 inhibition assay in MCF-7 cells; conditions: for Bcl-2 Conc: compound at its IC50
Experimental: (§1) The current study supplied compounds 6i and 10e to breast (MCF-7) cancer cell lines at their respective IC50 values. This led to a notable elevation of pro-apoptotic Bax expression, with a fold increase of 34 for compound 6i and 36 for compound 10e.
(§2) Compounds 6i and 10e were assessed for their ability to activate caspase-3, caspase-8, and Bax, as well as to downregulate the anti-apoptotic protein Bcl2 in the MCF-7 breast cancer cell line ([Abdelbaset et al., 2019]). Supplementary Appendix A provides more details.
Mix all the reagents thoroughly without foaming before use. Wash the microwells twice with approximately 300 μL Wash Buffer per well with thorough aspiration of microwell contents between washes. Take caution not to scratch the surface of the microwells. After the last wash, empty the wells and tap microwell strips on an absorbent pad or paper towel to remove excess Wash Buffer. Use the microwell strips immediately after washing or place upside down on a wet absorbent paper for not longer than 15 minutes. […] Add 100 μL of Sample Diluent in duplicate to all standard wells and to the blank wells. Prepare standard (1:2 dilution) in duplicate ranging from 32 ng/mL to 0.5 ng/mL. Add 100 μL of Sample Diluent, in duplicate, to the blank wells. Add 80 μL of Sample Diluent, in duplicate, to the sample wells. Add 20 μL of each Sample, in duplicate, to the designated wells. Add 50 μL of diluted biotin-conjugate to all wells, including the blank wells. Cover with a plate cover and incubate at room temperature, on a microplate shaker at 100 rpm if available, for 2 hours. Remove plate cover and empty the wells. Wash microwell strips 3 times as described in step 2. Add 100 μL of diluted Streptavidin-HRP to all wells, including the blank wells. Cover with a plate cover and incubate at room temperature, on a microplate shaker at 100 rpm if available, for 1 hour. Remove the plate cover and empty the wells. Wash microwell strips 3 times as described in step 2. Proceed to the next step. Pipette 100 μl of mixed TMB Substrate Solution to all wells, including the blanks. Incubate the microwell strips at room temperature (18° to 25°C) for about 15 minutes, if available on a rotator set at 100 rpm. Avoid direct exposure to intense light. The point, at which the substrate reaction is stopped, is often determined by the ELISA reader. Many ELISA readers record absorbance only up to 2.0 O.D. Therefore, the color development within individual microwells must be watched by the person running the assay and the substrate reaction stopped before positive wells are no longer properly detectable. Stop the enzyme reaction by quickly pipetting 100 μL of Stop Solution into each well, including the blank wells. It is important that the Stop Solution is spread quickly and uniformly throughout the microwells to completely inactivate the enzyme. Results must be read immediately after the Stop Solution is added or within one hour if the microwell strips are stored at 2 - 8°C in the dark. Read the absorbance of each microwell on a spectrophotometer using 450 nm as the primary wavelength.

Bax = Bax activation assay in MCF-7 cells; conditions: for Bax Conc: compound at its IC50; for Bax Fold change: vs untreated control
Experimental: as §1, §2
Bring all reagents, except the human Bax-α Standard, to room temperature for at least 30 minutes prior to opening. The human Bax-α Standard solution should not be left at room temperature for more than 10 minutes. All standards, controls and samples should be run in duplicate. Refer to the Assay Layout Sheet to determine the number of wells to be used and put any remaining wells with the desiccant back into the pouch and seal the ziploc. Store unused wells at 4 °C. Pipet 100 μL of Assay Buffer into the S0 (0 pg/mL standard) wells. Pipet 100 μL of Standards #1 through #6 into the appropriate wells. Pipet 100 μL of the Samples into the appropriate wells. Tap the plate gently to mix the contents. Seal the plate and incubate at room temperature on a plate shaker for 1 hour at ~500 rpm. Empty the contents of the wells and wash by adding 400 μL of wash solution to every well. Repeat the wash 4 more times for a total of 5 washes. After the final wash, empty or aspirate the wells and firmly tap the plate on a lint free paper towel to remove any remaining wash buffer. Pipet 100 μL of yellow Antibody into each well, except the Blank. Seal the plate and incubate at room temperature on a plate shaker for 1 hour at ~500 rpm. Empty the contents of the wells and wash by adding 400 μL of wash solution to every well. Repeat the wash 4 more times for a total of 5 washes. After the final wash, empty or aspirate the wells and firmly tap the plate on a lint free paper towel to remove any remaining wash buffer. Add 100 μL of blue Conjugate to each well, except the Blank. Seal the plate and incubate at room temperature on a plate shaker for 30 minutes at ~500 rpm. Empty the contents of the wells and wash by adding 400 μL of wash solution to every well. Repeat the wash 4 more times for a total of 5 washes. After the final wash, empty or aspirate the wells and firmly tap the plate on a lint free paper towel to remove any remaining wash buffer. Pipet 100 μL of Substrate Solution into each well. Incubate for 30 minutes at room temperature on a plate shaker at ~500 rpm. Pipet 100 μL Stop Solution to each well. Blank the plate reader against the Blank wells, read the optical density at 450 nm. Calculate the average net Optical Density (OD) bound for each standard and sample by subtracting the average Blank OD from the average OD for each standard and sample. Using linear graph paper, plot the Average Net OD for each standard versus Bax concentration in each standard. Approximate a straight line through the points. The concentration of Bax in the unknowns can be determined by interpolation.

caspase-8 = assay: Caspase-8 activation assay in MCF-7 cells; conditions: for Caspase-8 Conc: compound at its IC50 concentration; for Caspase-8 Fold change: vs untreated control
Experimental: Cells experience apoptosis in reaction to specific signaling cues, resulting in significant modifications. […] They decompose vital cellular components, including nuclear proteins, such as DNA repair enzymes and structural proteins within the cytoskeleton, essential for optimal cellular function.
Supplementary Appendix A provides more details.
The absorbance of each microwell was read on a spectrophotometer at 450 nm. A standard curve is prepared from 7human Caspase-8 standard dilutions and human Caspase-8 concentration determined.

[1] = system: A-549 (lung cancer cell line); assay: Antiproliferative assay, A-549; conditions: Homo sapiens, A549; read-out: Antiproliferative activity IC50 ± SEM, A-549
Description: Refer to Supplementary Appendix A for more information.
DMSO (0.1%) was used as control.

IC50 [1] [nM] | Structure (SMILES) | Bcl-2 Conc (Bcl-2) [ng/mL] | Bcl-2 Fold reduction (Bcl-2; vs untreated control) | Bax Conc (Bax) [pg/mL] | Bax Fold change (Bax) | Caspase-8 Conc (caspase-8) [ng/mL] | Caspase-8 Fold change (caspase-8)
26 ± 2 | O=[N+]([O-])c1cccc(-n2cc(Cn3c(SCc4ccccc4)nc4ccccc43)nn2)c1 [10e] | 0.70 | ~7 | 325 ± 3 | 36 | 1.75 ± 0.15 | 19
30 ± 2 | NS(=O)(=O)c1ccc(-n2cc(CSc3nc4ccccc4[nH]3)nn2)cc1 [6i, 4-(4-(((1H-benzimidazol-2-yl)thio)methyl)-1H-1,2,3-triazol-1-yl)benzene-sulfonamide] | 0.85 |  | 310 ± 3 | 34 | 1.60 ± 0.20 | 18
